# Measurements reported in article PMC7178208 (International Journal of Molecular Sciences, 2020).
# Peptide text beside a SMILES is read from it. * marks the point of attachment. FITC = O=C1OC2(c3ccc(O)cc3Oc3cc(O)ccc32)c2ccc(NC(=S)*)cc21; Ahx = NCCCCCC(=O)O
# How the values were obtained:
# C. albicans [1] = experiment: Confocal laser microscopy, localization of FITC peptides; format: cell-based, Candida albicans; settings: 50 μM FITC-conjugated peptide, 10^7 CFU/mL, SD broth, 28 °C, 5 min
# Experimental: Firstly, 10^7 CFU/mL of C. albicans was incubated with 0.25 mM FITC P-113 and 0.25 mM FITC alone (as a negative control) in SD broth at 28 °C for 1, 2, 3, 4, 5, and 6 h. Another experiment was performed to observe the short-term localization of Bip-P-113 and Dip-P-113 peptides. Briefly, log-phase C. albicans cultures were resuspended to a cell density of 10^7 CFU/mL in SD broth and treated for 5 min at 28 °C with 50 μM FITC-conjugated P-113, Bip-P-113, and Dip-P-113. After centrifugation, the cells were washed three times with 20 mM phosphate buffer (pH 7.4) to remove nonbinding peptides and fixed with 4% (w/v) paraformaldehyde in 20 mM phosphate buffer (pH 7.4) at room temperature for 20 min. Following fixation, the cells were centrifuged at 3500× g for 5 min, resuspended in phosphate buffer, and loaded onto a glass slide with a 1.4% solid agarose bed. The images were taken with a confocal laser scanning microscope (LSM 510 META, Carl Zeiss, Jena, Germany) equipped with a 40× C-Apochromat water-immersion objective lens (Carl Zeiss, Jena, Germany).
# [2] = test system: living C. albicans cells (secreted aspartic proteinases, Saps); experiment: Degradation of P-113 by living C. albicans cells (NMR); format: in vitro ADME, Candida albicans
# Experimental: For living cell NMR experiments, the interaction between ^15N-labeled P-113 peptides and C. albicans was monitored by 2D heteronuclear single quantum coherence (HSQC) spectroscopy. The peptides were dissolved in SD broth for a total volume of 500 μL at a 0.275 mM concentration. After centrifugation, 10^7 CFU/mL of cells were resuspended in 50 μL of SD broth and then titrated into the peptide solution. The ^15N-^1H HSQC spectra were recorded on a Bruker Avance 600-MHz NMR spectrometer in the States-TPPI mode for quadrature detection at 301 K. The ^1H and ^15N carriers were placed at 4.699 and 120 ppm, respectively. After titration, 2D HSQC spectra were collected every hour during 24 h of incubation at 301 K. All spectra were processed with NMRPipe and analyzed using the Sparky program (T.D. Goddard and D.G. Kneller, SPARKY3, University of California, San Francisco, CA, USA).
# To obtain sequence assignment information, 3D spectra, including those from HNCA, HN(CO)CA, HNCACB, HN(CO)CACB, HN(CA)CO, and HNCO experiments, were recorded on a Bruker Avance 600-MHz NMR spectrometer at 301 K. The ^13C carriers were placed at 48 ppm for C^α, at 38 ppm for ^13C^α/β and at 174 ppm for C′. All spectra were processed with NMRPipe and analyzed using the Sparky program.
# To observe the correlation of amide nitrogen (^15Ni) to the carbon (^13C′) spin in the proceeding residue (^13C′i−1), 2D CON experiments were performed on Bruker Avance 850-MHz NMR spectrometer equipped with a triple-resonance cryogenic probe. The spectra comparing ^15N-, ^13C-labeled P-113 in SD broth and in a C. albicans titration were recorded with the center frequencies at 120 ppm (^15N) and 174 ppm (^13C), respectively. All spectra were processed with NMRPipe and analyzed using the Sparky program.
# The inhibition of P-113 degradation by C. albicans was determined using living cell NMR experiments as described above in the presence of 0.5 mM of the aspartic protease inhibitor pepstatin A.
# [3] = test system: C. albicans American Type Culture Collection (ATCC) 10,231; format: cell-based, Candida albicans; settings: American Type Culture Collection (ATCC) 10,231, 24 h
# Experimental: C. albicans (ATCC 10231) from the American Type Culture Collection (Manassas, VA, USA) was cultured at 28 °C on SD agar plates.
# To determine the minimum inhibitory concentration (MIC) values of the FITC conjugated-P-113 peptides and their derivatives, a broth microdilution assay was used. Overnight-grown cultures of C. albicans in SD broth were sub-cultured for several hours and subsequently diluted to a final concentration of 5 × 10^4 CFU/mL in Mueller Hinton (MH) broth and LYM broth. A total of 100 μL of diluted microbe was transferred into each well of a 96-well plate, into which a 1 μL dilution series of peptides in sterile water (ranging from 50 to 0.78 μg/mL) was previously added. After incubation for 24 h at 28 ℃, the MIC value of P-113 peptides was determined as the lowest concentration at which no change in optical density was observed. The experiment was conducted three times, and average values were reported.
# Candida albicans = format: cell-based; settings: 24 h, 1
# Experimental: Figure 7 Time killing activity of FITC-labeled P-113 peptide and its FITC-labeled derivatives against Candida albicans. Cells were treated with 1× MIC of (a) P-113 (black circle), FITC-labeled N-terminal truncated P-113 (black square), FITC-labeled C-terminal truncated P-113 (black triangle), and (b) treated with FITC-labeled Bip-P-113 (white square), and FITC-labeled Dip-P-113 (white triangle). Killed cells (%) = (cell number in peptide-free control − cell number in sample)/(cell number in peptide-free control) × 100. Error bars represent the standard errors of the mean.
# C. albicans were cultivated onto Sabouraud dextrose agar plates overnight and sub-cultured twice before time killing assays. A total of 5 × 10^4 CFU/mL of C. albicans cells were treated with 1× MIC of FITC-conjugated P-113 peptides and their derivatives in SD broth for 10, 20, 30, 60, and 120 min at 28 °C. After that time, serial dilutions (1:10) of the incubation mixtures were added onto SD agar. The numbers of CFU were counted after 24 h of incubation at 28 °C. The percentage of killed cells was calculated by comparison with the number of cells in a control sample incubated without P-113 peptide. The assays were performed in triplicate.
# C. albicans [4] = experiment: Scanning electron microscopy, cell morphology; format: cell-based, Candida albicans; settings: 0.25 mM P-113, 10^7 CFU/mL, SD broth, 28 °C, 1-6 h
# Experimental: Time-course morphological studies of C. albicans were performed by scanning electron microscopy (SEM). Overnight cultures of C. albicans were sub-cultured and grown in SD broth. Then, 10^7 CFU/mL of C. albicans was treated with 0.25 mM P-113 in SD broth at 28 °C. Samples were collected following 1, 2, 3, 4, 5, and 6 h of incubation. Another experiment was performed to observe the morphological changes caused over in a short time caused by Bip-P-113 and Dip-P-113. Briefly, 10^7 CFU/mL of C. albicans in SD broth was treated for 5 min at 28 °C with 50 μM P-113, Bip-P-113, and Dip-P-113. After harvest, cells were resuspended in fixation solution (2.5% glutaraldehyde in 20 mM phosphate buffer pH 7.4) and then placed on Thermanox substrate-coated cover slips at 4 °C for 12 h. The cover slips were carefully washed three times with 20 mM phosphate buffer (pH 7.4), followed by incubation in post-fixation solution (1% OsO4 in 20 mM phosphate buffer pH 7.4) at room temperature for an hour. After being washed three times with 20 mM phosphate buffer (pH 7.4), the cover slips were air-dried for an hour by dehydration with a graded series of ethanol. Samples were gold-coated and observed under an S-4700 field-emission (FE)-SEM (Hitachi, Ltd., Tokyo, Japan) at an acceleration voltage of 5 kV.
# [5] = 0.01% P-113 (0.07 μM) in a mouthrinse treatment, clinical trial; cited from earlier work
smiles,measurement,setting,value
C[C@H](NC(=O)CCCCCNC(=S)Nc1ccc2c(c1)C(=O)OC21c2ccc(O)cc2Oc2cc(O)ccc21)C(=O)N[C@@H](CCCCN)C(=O)N[C@@H](CCCNC(=N)N)C(=O)N[C@@H](Cc1c[nH]cn1)C(=O)N[C@@H](Cc1c[nH]cn1)C(=O)NCC(=O)N[C@@H](Cc1ccc(O)cc1)C(=O)N[C@@H](CCCCN)C(=O)N[C@@H](CCCNC(=N)N)C(=O)N[C@@H](CCCCN)C(=O)N[C@@H](Cc1ccccc1)C(=O)N[C@@H](Cc1c[nH]cn1)C(N)=O [Peptide P-113] ({FITC-Ahx}-AKRHHGYKRKFH-NH2; N-terminus assumed),Cellular localization of FITC peptide,C. albicans [1],accumulated in the cytosol
same,Cleavage sites,"[2]; 0.25 mM 15N-,13C-labeled P-113, 10^7 CFU/mL C. albicans, SD broth, 301 K, 24 h, 15N-13C CON and 3D backbone assignment","Tyr7-Lys8, Lys8-Arg9, and Lys10-Phe11"
same,Incubation time to near-complete degradation of P-113,"[2]; 0.25 mM 15N-labeled P-113 (no FITC), 10^7 CFU/mL C. albicans, SD broth with 10% D2O, 301 K, 1H-15N HSQC every hour",5 h
same,Time at which the first cleavage (Lys10-Phe11) was observed,"[2]; 0.25 mM 15N-labeled P-113, 10^7 CFU/mL C. albicans, SD broth, 301 K, new HSQC cross-peaks",1 h
same,Changes in 1H-15N HSQC chemical shifts (degradation) in the presence of pepstatin A,"[2]; 0.25 mM P-113, 10^7 CFU/mL C. albicans + 0.5 mM pepstatin A, 301 K, 24 h",no noticeable changes
same,Changes in chemical shifts (degradation) at cell densities below 10^7 cells/mL,"[2]; 0.25 mM P-113, C. albicans below 10^7 cells/mL, data not shown",did not show any noticeable changes
same,"MIC, LYM Control",[3],3.13 µg/mL
same,"MIC, MH Broth",[3],>50 µg/mL
same,Killed cells,Candida albicans,87%
same,"Cell surface morphology (SEM), time course",C. albicans [4],smooth
same,Effect on gingivitis and plaque,[5],reduced the development of gingivitis and plaque
